Results published in US9376395B2 (priority 2011, dated 2016).

Columns and labels:
NCI-60 cell lines = assay: NCI-60 cell line panel screening; format: cell-based, human; settings: vs Bendamustine
Human NSCLC A549 cells = settings: 60 mg/kg i.v. day 1, 4, 8, 11, 18, 25; 10% HPβCD formulation; balb/c nu/nu mice

Row | SMILES | fold more potent than Bendamustine in the NCI-60 cell lines (NCI-60 cell lines) | Body weight (Human NSCLC A549 cells) [g] | T/C (%) (Human NSCLC A549 cells) | Tumor volume (mm3) (Human NSCLC A549 cells) | Tumor weight (Human NSCLC A549 cells) [g]
1 | Cn1c(CCCCCCC(=O)NO)nc2cc(N(CCCl)CCCl)ccc21 [NL-101] | 25-100 fold | 27.6 | 37.7 | 772.7 | 0.88
2 | Cn1c(CCCC(=O)O)nc2cc(N(CCCl)CCCl)ccc21 [Bendamustine, reference compound] | – | 28.6 | 71.9 | 1716.5 | 1.97
